Experimental data published in paper PMC7399337, “Biological Properties and Absolute Configuration of Flavanones From Calceolaria thyrsiflora Graham” (Frontiers in Pharmacology, 2020).
In brackets after ≈: the same amount, converted by molar mass. Like-named read-outs stand apart in the source and are kept apart here.

Key:
5-hLOX = target: T1, 5-hLOX (Homo sapiens, UniProt P09917); test: In vitro 5-hLOX enzyme assay (H2DCFDA fluorescence); format: biochemical; conditions: for Type of inhibition: 5-hLOX; for inhibition at 10 µM: Flavanones at 10 µM
T1 construct: purchased Cayman Chemicals Inc. (Ann Arbor, MI, USA)
T1 sequence (P09917 1-674): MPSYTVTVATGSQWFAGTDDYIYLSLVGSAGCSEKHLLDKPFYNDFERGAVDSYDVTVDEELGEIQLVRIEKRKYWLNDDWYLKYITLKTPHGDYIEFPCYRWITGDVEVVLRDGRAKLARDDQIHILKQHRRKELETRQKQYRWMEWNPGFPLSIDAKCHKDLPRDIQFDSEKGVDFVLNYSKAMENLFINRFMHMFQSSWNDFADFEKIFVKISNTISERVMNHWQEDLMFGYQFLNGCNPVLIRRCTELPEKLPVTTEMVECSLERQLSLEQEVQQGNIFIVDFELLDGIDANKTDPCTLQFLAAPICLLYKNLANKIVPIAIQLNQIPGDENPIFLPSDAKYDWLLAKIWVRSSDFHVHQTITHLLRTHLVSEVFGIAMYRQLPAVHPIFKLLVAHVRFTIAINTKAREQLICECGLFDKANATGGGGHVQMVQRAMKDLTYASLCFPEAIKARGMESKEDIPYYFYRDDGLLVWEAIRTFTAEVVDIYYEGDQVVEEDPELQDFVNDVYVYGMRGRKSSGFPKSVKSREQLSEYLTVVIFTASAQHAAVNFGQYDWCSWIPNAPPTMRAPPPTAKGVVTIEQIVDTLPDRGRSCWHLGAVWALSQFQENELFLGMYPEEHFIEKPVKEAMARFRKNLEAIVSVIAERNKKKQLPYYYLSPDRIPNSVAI
Protocol: The commercially available enzyme 5-hLOX from Cayman Chemicals Inc. (Ann Arbor, MI, USA), was diluted (1:500) in the assay buffer. This contained 4-(2-hydroxyethyl)-1-piperazineethane sulfonic acid (HEPES) 50 mM, ethylenediamine tetraacetic acid (EDTA) 2 mM, adenosine triphosphate (ATP) 10 μM, and CaCl2 10 μM at pH 7.5) admixed with 10 μM of H2DCFDA. The reaction mixture was incubated for 15 min in the assay plate. Later, 280 μL of buffer and 10 μM of inhibitors were added per well and incubated for 30 min at 37°C. Finally, the reaction was started by adding a suitable concentration of arachidonic acid (0.5 μM) and the fluorescence was read in a multimode detector Synergy™ HT Multi-Mode Microplate Reader (Biotek, Bad Friedrichshall, Germany) […] after incubation at room temperature for 1 h. The IC50 values were obtained for analysis of oxidation of H2DCFDA dye to the highly fluorescent 2’,7’-dichloro-fluorescein (DCF) using the non-linear curve-fitting program. […] All data were collected in duplicate and the assays were performed on different days to ensure reproducibility.

P. cinnamomi = test: In vitro fungicidal activity, radial mycelial growth test on PDA; format: cell-based, Phytophtora cinnamomi; conditions: Phytophthora cinnamomi, 120 h, read-out: Percentage of inhibition on in vitro mycelial growth of P. cinnamomi; for inhibition at 50 µg/mL: 50 mg/L; for inhibition at 150 µg/mL: 150 mg/L; for inhibition at 250 µg/mL: 250 mg/L
Protocol: A strain of Botrytis cinerea isolated from a naturally infected grape (Vitis vinifera) was used in all experiments. Isolated Phytophtora cinnamomi was provided by the Agricultural and Livestock Service of Valparaíso. Both strains were maintained on a potato dextrose agar (PDA) medium (DIFCO, Detroit, MI) at 4°C. The inoculum of both pathogens was grown on PDA and incubates in dark at 23°C for 5 days in the case of B. cinerea and 8 days for P. cinnamomi.
The fungicidal activity of flavanones, extracts, the negative control (C-) composed of solvent (1% ethanol), and the positive control (C+, commercial fungicide Captan® and metalaxil® for B. cinerea and P. cinnamomi, respectively) were assessed using the radial growth test technique on PDA medium as described ([Taborga et al., 2015]). All test samples were dissolved in ethanol (1%) and water, to obtain final concentrations of 50, 150, and 250 mg/L in the PDA medium. A plug (4 mm) of PDA medium with five-day-old mycelium colonies of the pathogen was placed at the center of a Petri dish with PDA medium with or without studied test samples and were incubated at 23°C in dark for 72 h (B. cinerea) and 120 h (P. cinnamomi). After incubation, the diameters of colonies were measured and the inhibition percentage was calculated as the average of three replicas compared to C-.

S. aureus MRSA 622-4 = test: Antibacterial MIC, CLSI microdilution, human pathogens; format: cell-based; conditions: Staphylococcus aureus, 18 h, read-out: Minimum inhibitory concentration (MIC)
Protocol: (§1) Briefly, stock solutions (5 mg/ml) of compounds in DMSO were diluted in Mueller-Hinton broth (MHB) to the different two-fold assay concentrations. […] The obtained solution was added to MHB and serially two-fold diluted in a 96-well microplate. A sample of 100 μL of inoculum 1.5 × 10^6 colony forming unit (CFU) ml^-1 in MHB was added and then incubated at 37°C for 18 h. The assay was repeated three times. Wells containing MHB, 100 μL of inoculum, and DMSO served as negative controls.

S. aureus NTCC8325-4 = test: as above; format: cell-based; conditions: Staphylococcus aureus, NTCC83254, 18 h, read-out: Minimum inhibitory concentration (MIC)
Protocol: as §1

S. aureus MRSA 97-7 = test: as above; format: cell-based; conditions: Staphylococcus aureus, 18 h, read-out: Minimum inhibitory concentration (MIC)
Protocol: as §1

| SMILES | IC50 (5-hLOX) | Ki (5-hLOX) | Type of inhibition (5-hLOX) | inhibition at 10 µM (5-hLOX) | inhibition at 50 µg/mL (P. cinnamomi) | inhibition at 150 µg/mL (P. cinnamomi) | inhibition at 250 µg/mL (P. cinnamomi) | MIC (S. aureus MRSA 622-4) | MIC (S. aureus NTCC8325-4) | MIC (S. aureus MRSA 97-7) | IC50 (5-hLOX; read-out: IC50 (5-hLOX)) |
| --- | --- | --- | --- | --- | --- | --- | --- | --- | --- | --- | --- |
| COc1cc(O)c2c(c1)O[C@H](c1ccc(O)cc1)CC2=O [Compound 1, (-)-(2S)-5,4’-dihydroxy-7-methoxyflavanone] | 11.3 µM | 4.71 µM | non-competitive | 61 ± 1.34% | 0% | 0% | 0% | > 100 µg/mL | > 100 µg/mL | > 100 µg/mL | – |
| COc1cc(O)c2c(c1)O[C@H](c1ccc(O)c(O)c1)CC2=O [Compound 2, (-)-(2S)-5,3’,4’-trihydroxy-7-methoxyflavanone] | – | – | competitive | 93 ± 0.791% | 0% | 33 ± 5.8% | 42 ± 5.3% | > 100 µg/mL | > 100 µg/mL | 50 µg/mL (≈ 165 µM) | 0.1 µM |
